Columns and labels:
[1] = target: T1, Histone-lysine N-methyltransferase EHMT2 (Homo sapiens, UniProt Q96KQ7); experiment: Competitive inhibition of human G9a using 40 to 2560 nM biotinylated-H3K9 peptide as substrate after 1 hr in presence of SAM by TR-FRET assay
T1 sequence (Q96KQ7 whole entry): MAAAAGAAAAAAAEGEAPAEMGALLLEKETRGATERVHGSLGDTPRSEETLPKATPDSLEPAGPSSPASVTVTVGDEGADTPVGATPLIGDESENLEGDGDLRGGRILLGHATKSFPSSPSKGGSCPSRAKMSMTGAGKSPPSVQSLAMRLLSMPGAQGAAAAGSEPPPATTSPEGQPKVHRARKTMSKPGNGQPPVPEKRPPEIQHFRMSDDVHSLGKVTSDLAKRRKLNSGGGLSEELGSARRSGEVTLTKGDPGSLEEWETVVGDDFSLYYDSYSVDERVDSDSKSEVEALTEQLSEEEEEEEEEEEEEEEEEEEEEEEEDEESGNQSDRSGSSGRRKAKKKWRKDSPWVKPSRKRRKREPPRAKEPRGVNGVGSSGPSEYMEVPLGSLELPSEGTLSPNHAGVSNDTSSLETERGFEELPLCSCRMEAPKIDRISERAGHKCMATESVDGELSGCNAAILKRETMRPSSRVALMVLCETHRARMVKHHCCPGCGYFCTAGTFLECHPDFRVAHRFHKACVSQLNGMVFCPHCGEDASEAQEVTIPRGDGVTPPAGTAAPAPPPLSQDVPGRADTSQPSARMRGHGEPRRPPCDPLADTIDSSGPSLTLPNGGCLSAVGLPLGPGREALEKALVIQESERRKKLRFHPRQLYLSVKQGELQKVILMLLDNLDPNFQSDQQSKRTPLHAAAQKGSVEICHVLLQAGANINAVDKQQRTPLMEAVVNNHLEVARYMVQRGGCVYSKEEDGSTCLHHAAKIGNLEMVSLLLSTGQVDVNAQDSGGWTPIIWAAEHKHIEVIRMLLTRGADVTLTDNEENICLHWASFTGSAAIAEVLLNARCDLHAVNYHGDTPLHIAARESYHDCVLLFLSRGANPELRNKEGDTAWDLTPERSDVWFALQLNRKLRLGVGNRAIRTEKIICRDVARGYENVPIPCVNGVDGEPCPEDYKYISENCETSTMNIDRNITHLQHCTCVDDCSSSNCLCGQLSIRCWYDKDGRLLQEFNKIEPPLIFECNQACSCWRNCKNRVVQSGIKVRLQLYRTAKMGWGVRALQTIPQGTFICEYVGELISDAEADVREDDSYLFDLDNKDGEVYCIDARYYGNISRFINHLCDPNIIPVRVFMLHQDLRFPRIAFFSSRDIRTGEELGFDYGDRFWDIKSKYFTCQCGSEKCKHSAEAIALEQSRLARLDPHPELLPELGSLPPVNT

[2] = target: T1, Histone-lysine N-methyltransferase EHMT2; experiment: Inhibition of human G9a using biotinylated-H3K9 peptide as substrate after 1 hr in presence of SAM by TR-FRET assay
[3] = Growth inhibition of human CEMO1 cells after 48 hrs by MTS assay; type: functional
[4] = system: OCI-Ly3; experiment: Growth inhibition of human OCI-LY3 cells at 1 uM after 48 hrs by MTS assay relative to control; type: functional; settings: OCI-Ly3, 48 h, read-out: GI
[5] = target: T2, DNA (cytosine-5)-methyltransferase 1 (Homo sapiens, UniProt P26358); experiment: Inhibition of human DNMT1 using polydeoxyinosine polydeoxycytosine DNA as substrate after 15 mins in presence of SAM by TR-FRET assay
T2 sequence (P26358 whole entry): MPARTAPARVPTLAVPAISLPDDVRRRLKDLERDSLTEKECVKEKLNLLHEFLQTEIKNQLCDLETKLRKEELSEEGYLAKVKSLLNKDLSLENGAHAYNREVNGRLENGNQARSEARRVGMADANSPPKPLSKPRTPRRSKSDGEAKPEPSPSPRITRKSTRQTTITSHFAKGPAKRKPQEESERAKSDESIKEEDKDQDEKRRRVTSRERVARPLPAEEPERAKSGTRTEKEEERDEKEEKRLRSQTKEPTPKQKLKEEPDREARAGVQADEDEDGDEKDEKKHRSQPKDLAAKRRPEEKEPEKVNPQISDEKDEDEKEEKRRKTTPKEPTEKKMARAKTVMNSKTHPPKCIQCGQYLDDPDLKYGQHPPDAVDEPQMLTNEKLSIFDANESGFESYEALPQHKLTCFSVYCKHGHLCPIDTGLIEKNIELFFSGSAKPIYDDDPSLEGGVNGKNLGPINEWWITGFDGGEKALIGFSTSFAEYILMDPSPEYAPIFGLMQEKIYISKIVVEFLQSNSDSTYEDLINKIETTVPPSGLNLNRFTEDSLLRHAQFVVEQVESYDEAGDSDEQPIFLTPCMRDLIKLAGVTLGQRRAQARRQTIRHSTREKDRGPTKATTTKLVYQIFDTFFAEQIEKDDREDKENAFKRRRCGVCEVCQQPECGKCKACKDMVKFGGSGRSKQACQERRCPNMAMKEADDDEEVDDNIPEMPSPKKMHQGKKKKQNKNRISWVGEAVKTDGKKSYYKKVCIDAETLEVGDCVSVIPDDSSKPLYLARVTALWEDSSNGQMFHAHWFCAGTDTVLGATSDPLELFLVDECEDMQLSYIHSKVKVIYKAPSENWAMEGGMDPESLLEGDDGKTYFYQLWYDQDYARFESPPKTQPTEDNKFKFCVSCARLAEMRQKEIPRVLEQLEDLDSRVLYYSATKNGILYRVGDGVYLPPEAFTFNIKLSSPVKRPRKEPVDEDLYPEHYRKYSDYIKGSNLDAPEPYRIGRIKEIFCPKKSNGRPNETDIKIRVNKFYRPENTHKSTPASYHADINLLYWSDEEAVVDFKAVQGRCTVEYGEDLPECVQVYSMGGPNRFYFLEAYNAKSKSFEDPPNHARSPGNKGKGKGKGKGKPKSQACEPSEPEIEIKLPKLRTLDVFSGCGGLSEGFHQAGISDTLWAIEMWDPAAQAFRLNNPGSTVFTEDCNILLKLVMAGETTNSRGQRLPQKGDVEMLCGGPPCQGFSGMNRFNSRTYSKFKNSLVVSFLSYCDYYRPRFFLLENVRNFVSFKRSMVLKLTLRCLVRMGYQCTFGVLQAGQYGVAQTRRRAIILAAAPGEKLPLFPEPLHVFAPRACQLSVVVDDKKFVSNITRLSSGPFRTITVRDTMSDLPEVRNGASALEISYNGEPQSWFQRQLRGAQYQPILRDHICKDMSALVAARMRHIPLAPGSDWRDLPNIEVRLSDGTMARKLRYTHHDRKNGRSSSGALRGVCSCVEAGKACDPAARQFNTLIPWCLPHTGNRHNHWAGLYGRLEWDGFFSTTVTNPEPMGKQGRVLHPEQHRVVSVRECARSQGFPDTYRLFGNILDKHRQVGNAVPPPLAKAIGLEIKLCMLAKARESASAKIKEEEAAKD

[6] = target: T2, DNA (cytosine-5)-methyltransferase 1; experiment: Non-competitive inhibition of human DNMT1 using polydeoxyinosine polydeoxycytosine DNA as substrate after 15 mins in presence of 1 to 20 uM SAM by TR-FRET assay
[7] = target: T1, Histone-lysine N-methyltransferase EHMT2; experiment: Non-competitive inhibition of human G9a using biotinylated-H3K9 peptide as substrate after 1 hr in presence of 2 to 640 uM SAM by TR-FRET assay
[8] = system: OCI-Ly10; experiment: Growth inhibition of human OCI-LY10 cells at 1 uM after 48 hrs by MTS assay relative to control; type: functional; settings: OCI-Ly10, 48 h, read-out: GI
[9] = target: T2, DNA (cytosine-5)-methyltransferase 1; experiment: Competitive inhibition of human DNMT1 using 1 to 100 ug/ml polydeoxyinosine polydeoxycytosine DNA as substrate after 15 mins in presence of SAM by TR-FRET assay
[10] = system: MV4-11; experiment: Growth inhibition of human MV4-11 cells after 48 hrs by MTS assay; type: functional; settings: MV4-11, 48 h
[11] = target: T3, Histone-lysine N-methyltransferase EHMT1 (Homo sapiens, UniProt Q9H9B1); experiment: Inhibition of recombinant human GLP using histone H3 peptide as substrate after 120 mins in presence of [3H]SAM by radiometric assay
T3 sequence (Q9H9B1 whole entry): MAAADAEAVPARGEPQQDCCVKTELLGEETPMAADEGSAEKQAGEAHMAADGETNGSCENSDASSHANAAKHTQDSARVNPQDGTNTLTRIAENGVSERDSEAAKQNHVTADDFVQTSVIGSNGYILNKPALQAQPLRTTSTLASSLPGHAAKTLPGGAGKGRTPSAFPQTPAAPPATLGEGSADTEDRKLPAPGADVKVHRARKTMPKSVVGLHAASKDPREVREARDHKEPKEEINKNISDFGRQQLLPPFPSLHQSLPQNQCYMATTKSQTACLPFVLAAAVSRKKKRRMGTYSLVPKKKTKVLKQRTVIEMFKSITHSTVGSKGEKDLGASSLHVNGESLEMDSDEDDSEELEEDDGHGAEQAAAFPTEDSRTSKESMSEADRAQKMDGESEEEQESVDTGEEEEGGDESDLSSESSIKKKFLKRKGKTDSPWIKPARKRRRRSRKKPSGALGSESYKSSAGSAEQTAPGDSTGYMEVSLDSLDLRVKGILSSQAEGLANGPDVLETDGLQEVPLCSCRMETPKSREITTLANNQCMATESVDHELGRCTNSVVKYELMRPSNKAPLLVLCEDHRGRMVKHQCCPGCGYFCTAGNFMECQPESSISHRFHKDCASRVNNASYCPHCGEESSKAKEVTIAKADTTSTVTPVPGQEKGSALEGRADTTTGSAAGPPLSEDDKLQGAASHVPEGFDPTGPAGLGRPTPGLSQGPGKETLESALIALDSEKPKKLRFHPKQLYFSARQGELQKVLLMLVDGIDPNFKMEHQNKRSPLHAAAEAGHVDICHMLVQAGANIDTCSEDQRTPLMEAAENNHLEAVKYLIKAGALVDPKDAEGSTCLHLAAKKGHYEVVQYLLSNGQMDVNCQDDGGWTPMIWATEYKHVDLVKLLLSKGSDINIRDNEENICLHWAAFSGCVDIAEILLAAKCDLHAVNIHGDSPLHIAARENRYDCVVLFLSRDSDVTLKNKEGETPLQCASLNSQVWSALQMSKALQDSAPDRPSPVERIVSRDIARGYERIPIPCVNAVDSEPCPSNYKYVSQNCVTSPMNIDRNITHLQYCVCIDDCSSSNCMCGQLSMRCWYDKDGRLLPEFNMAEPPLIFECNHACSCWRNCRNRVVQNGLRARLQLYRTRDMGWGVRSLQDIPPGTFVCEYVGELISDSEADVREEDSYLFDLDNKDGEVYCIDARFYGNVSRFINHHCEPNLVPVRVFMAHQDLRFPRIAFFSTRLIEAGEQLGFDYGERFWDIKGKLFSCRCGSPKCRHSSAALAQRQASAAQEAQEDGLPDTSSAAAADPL

[12] = system: THLE-2; experiment: Growth inhibition of human THLE2 cells after 72 hrs by MTS assay; type: cell-based; settings: thle-2, 72 h
[13] = Growth inhibition of human CEMO1 cells at 10 uM after 48 hrs by MTS assay relative to control; type: functional; settings: read-out: GI
[14] = system: OCI-Ly10; experiment: Growth inhibition of human OCI-LY10 cells after 48 hrs by MTS assay; type: functional; settings: OCI-Ly10, 48 h
[15] = Growth inhibition of human LAL-CUN-2 cells after 48 hrs by MTS assay; type: functional
[16] = system: OCI-Ly3; experiment: Growth inhibition of human OCI-LY3 cells after 48 hrs by MTS assay; type: functional; settings: OCI-Ly3, 48 h
[17] = Permeability of the compound at 50 uM after 18 hrs by PAMPA; type: ADME; settings: read-out: permeability
[18] = target: CYP2C19 (Homo sapiens, UniProt P33261); experiment: Inhibition of CYP2C19 in human liver microsomes at 10 uM after 10 mins in presence of NADPH by LC-MS/MS analysis relative to control; type: ADME
Sequence of CYP2C19 (P33261 whole entry): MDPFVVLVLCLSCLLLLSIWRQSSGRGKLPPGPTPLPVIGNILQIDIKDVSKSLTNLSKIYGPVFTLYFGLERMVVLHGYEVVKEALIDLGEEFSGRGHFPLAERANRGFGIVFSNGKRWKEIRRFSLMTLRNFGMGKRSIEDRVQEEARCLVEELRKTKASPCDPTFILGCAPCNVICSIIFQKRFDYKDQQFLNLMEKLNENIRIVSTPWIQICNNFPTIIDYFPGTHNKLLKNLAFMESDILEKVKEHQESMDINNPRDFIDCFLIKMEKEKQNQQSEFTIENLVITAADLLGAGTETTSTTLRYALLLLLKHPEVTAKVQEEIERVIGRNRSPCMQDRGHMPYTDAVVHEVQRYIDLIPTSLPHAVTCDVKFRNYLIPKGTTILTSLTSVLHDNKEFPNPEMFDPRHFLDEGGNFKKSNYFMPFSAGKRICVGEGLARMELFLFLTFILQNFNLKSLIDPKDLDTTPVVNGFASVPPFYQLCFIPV

[19] = Metabolic stability in mouse liver microsomes assessed as parent compound remaining at 1 uM preincubated for 10 mins followed by NADP addition after 20 mins by LC-MS/MS analysis; type: ADME, microsome; settings: read-out: Stability
[20] = target: CYP2C9 (Homo sapiens, UniProt P11712); experiment: Inhibition of CYP2C9 in human liver microsomes at 10 uM after 10 mins in presence of NADPH by LC-MS/MS analysis relative to control; type: ADME
Sequence of CYP2C9 (P11712 whole entry): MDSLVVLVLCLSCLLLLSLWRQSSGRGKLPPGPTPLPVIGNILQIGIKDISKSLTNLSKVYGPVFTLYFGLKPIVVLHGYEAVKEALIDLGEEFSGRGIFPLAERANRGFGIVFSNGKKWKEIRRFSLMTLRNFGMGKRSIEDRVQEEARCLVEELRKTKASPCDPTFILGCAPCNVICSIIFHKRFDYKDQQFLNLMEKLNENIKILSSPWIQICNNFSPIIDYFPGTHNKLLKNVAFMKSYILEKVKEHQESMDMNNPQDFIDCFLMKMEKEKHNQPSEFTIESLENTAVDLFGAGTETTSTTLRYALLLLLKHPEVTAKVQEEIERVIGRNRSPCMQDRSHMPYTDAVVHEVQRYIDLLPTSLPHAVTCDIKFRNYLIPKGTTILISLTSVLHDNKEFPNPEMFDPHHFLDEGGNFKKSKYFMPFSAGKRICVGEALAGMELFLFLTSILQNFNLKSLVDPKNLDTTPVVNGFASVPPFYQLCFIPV

[21] = Half life in human liver microsomes at 1 uM preincubated for 10 mins followed by NADP addition after 20 mins by LC-MS/MS analysis; type: ADME, microsome; settings: microsomes, 20 min, 1 µM
[22] = target: CYP2D6 (Homo sapiens, UniProt P10635); experiment: Inhibition of CYP2D6 in human liver microsomes at 10 uM after 10 mins in presence of NADPH by LC-MS/MS analysis relative to control; type: ADME
Sequence of CYP2D6 (P10635 whole entry): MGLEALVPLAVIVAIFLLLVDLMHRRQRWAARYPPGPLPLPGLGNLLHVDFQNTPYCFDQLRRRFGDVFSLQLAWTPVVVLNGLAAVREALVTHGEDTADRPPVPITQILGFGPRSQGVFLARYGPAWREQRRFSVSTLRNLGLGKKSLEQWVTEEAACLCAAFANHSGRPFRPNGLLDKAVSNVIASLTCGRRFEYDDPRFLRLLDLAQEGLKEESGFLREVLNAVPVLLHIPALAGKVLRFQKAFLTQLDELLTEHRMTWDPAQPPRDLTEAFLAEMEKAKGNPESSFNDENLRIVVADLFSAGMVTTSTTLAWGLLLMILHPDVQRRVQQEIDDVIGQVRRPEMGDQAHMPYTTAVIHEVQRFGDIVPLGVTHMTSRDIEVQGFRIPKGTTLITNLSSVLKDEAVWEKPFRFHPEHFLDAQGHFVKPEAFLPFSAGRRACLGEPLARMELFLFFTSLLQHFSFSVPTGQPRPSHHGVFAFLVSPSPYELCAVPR

[23] = Metabolic stability in human liver microsomes assessed as parent compound remaining at 1 uM preincubated for 10 mins followed by NADP addition after 20 mins by LC-MS/MS analysis; type: ADME, microsome; settings: microsomes, 20 min, 1 µM
[24] = target: T4, CYP1A2 (Homo sapiens, UniProt P05177); experiment: Inhibition of CYP1A2 in human liver microsomes at 10 uM after 10 mins in presence of NADPH by LC-MS/MS analysis relative to control; type: ADME
T4 sequence (P05177 whole entry): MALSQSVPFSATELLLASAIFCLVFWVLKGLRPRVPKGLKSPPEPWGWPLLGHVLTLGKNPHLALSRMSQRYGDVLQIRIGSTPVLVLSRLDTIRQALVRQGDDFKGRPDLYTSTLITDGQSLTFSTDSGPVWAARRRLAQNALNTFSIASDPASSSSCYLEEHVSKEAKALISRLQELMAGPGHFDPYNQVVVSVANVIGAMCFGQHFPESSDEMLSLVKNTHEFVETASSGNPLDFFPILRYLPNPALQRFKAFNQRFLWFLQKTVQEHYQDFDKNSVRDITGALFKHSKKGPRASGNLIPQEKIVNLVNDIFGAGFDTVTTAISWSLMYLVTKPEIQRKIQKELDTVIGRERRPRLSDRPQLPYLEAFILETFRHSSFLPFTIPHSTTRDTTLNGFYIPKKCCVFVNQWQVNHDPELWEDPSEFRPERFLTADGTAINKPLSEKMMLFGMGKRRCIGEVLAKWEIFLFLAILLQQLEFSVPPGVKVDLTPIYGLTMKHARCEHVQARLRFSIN

[25] = target: CYP3A4 (Homo sapiens, UniProt P08684); experiment: Inhibition of CYP3A4 in human liver microsomes at 10 uM after 10 mins in presence of NADPH by LC-MS/MS analysis relative to control; type: ADME
Sequence of CYP3A4 (P08684 whole entry): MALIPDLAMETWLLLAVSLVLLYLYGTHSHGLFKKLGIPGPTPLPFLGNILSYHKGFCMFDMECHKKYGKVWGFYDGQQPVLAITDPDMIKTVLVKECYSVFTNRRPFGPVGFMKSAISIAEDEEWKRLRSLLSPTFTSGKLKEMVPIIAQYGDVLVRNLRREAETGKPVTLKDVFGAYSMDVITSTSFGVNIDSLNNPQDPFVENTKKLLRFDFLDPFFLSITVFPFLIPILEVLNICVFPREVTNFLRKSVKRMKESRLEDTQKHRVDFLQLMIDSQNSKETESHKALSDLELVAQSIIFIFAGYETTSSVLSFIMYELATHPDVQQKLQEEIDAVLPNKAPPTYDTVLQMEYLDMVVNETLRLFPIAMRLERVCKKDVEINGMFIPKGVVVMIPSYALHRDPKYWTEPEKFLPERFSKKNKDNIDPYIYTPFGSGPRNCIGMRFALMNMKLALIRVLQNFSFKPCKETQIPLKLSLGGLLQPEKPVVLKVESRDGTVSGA

[26] = Half life in mouse liver microsomes at 1 uM preincubated for 10 mins followed by NADP addition after 20 mins by LC-MS/MS analysis; type: ADME, microsome
[27] = Growth inhibition of human LAL-CUN-2 cells at 10 uM after 48 hrs by MTS assay relative to control; type: functional; settings: read-out: GI

Row | SMILES | IC50 [2] [µM] | GI50 [3] [µM] | IC50 [5] [µM] | GI50 [10] [µM] | LC50 [12] [µM] | inhibition of growth at 10 µM [13] [%] | GI50 [14] [µM] | GI50 [16] [µM] | Papp at 18 h, 50 µM [17] [nm/s] | also measured
1 | COc1cc2c(NC3CCN(C(C)C)CC3)cc(C3CCCCC3)nc2cc1OCCCN1CCCC1 | 0.0007 | > 10 | 0.619 | > 10 | 83.8 |  |  |  |  | IC50 [1]: 0.0007 to 0.029 µM; inhibition of growth at 1 µM [4]: 0%; IC50 [6]: 1.4 to 2.4 µM; IC50 [7]: 0.0005 to 0.002 µM; inhibition of growth at 1 µM [8]: 0%; IC50 [9]: 1.4 to 10 µM; IC50 [11]: 0.18 µM
2 | COc1cc2c(NC3CCN(C)CC3)cc(N3CCN(C)CC3)nc2cc1OCCCN1CCCC1 | 0.042 |  | 0.945 |  |  | 14 |  |  |  | 
3 | COc1cc2c(NC3CCNCC3)cc(-c3ccc(C)o3)nc2cc1OCCCN1CCCC1 | 0.006 | 1.98 | 0.137 |  | 8.85 |  | > 4 | 1.27 | 2 | GI50 [15]: > 5 µM
4 | COc1cc2c(NC3CCN(C)CC3)cc(C)nc2cc1OCCCN1CCCC1 | 0.006 |  | 0.929 |  |  | 14 |  |  |  | 
5 | COc1cc2c(NC3CCN(C(C)C)CC3)cc(-c3ccc(C)o3)nc2cc1OCCCN1CCCC1 | 0.003 | 0.247 | 0.231 | 0.649 | 1.34 |  | 0.792 | 0.898 | 25.8 | inhibition at 10 min, 10 µM [18]: 0%; remaining at 20 min, 1 µM [19]: 36.9%; inhibition at 10 min, 10 µM [20]: 6.1%; t1/2 [21]: 102 min; inhibition at 10 min, 10 µM [22]: 11.4%; Stability [23]: 64%; inhibition at 10 min, 10 µM [24]: 4.3%; inhibition at 10 min, 10 µM [25]: 0%; half-life at 1 µM [26]: 18 min
6 | COc1cc2c(NC3CCN(C)CC3)cc(-c3ccoc3)nc2cc1OCCCN1CCCC1 | 0.007 | 4.56 | 0.978 |  | 22.3 |  | 0.386 | > 4 | 2.2 | inhibition of growth at 10 µM [27]: 54%
